Read-outs that look alike come from different tables or passages of the source. Positions of bridges follow the written chain, without caps; N, C: chain ends. Non-standard residues stand in square brackets, D forms with d. Residues, ends and D or L forms follow the SMILES beside them. ξ: configuration not given here. *: point of attachment. Phe(3,4,5-F3) = N[C@@H](Cc1cc(F)c(F)c(F)c1)C(=O)O; Phe(4-CHF2) = N[C@@H](Cc1ccc(C(F)F)cc1)C(=O)O; Phe(4-Cl) = N[C@@H](Cc1ccc(Cl)cc1)C(=O)O; d(cisHyp) = O=C(O)[C@H]1C[C@@H](O)CN1; Bta = N[C@@H](Cc1csc2ccccc12)C(=O)O; ξPro(4R-OH) = O=C(O)C1C[C@@H](O)CN1; Hyp = O=C(O)[C@@H]1C[C@@H](O)CN1; NMeF = CN[C@@H](Cc1ccccc1)C(=O)O; dNMeE = CN[C@H](CCC(=O)O)C(=O)O; dNMeNle = CCCC[C@@H](NC)C(=O)O; NMeNle = CCCC[C@H](NC)C(=O)O; NMeS = CN[C@@H](CO)C(=O)O; hSer = N[C@@H](CCO)C(=O)O; NMeA = CN[C@@H](C)C(=O)O; Orn = NCCC[C@H](N)C(=O)O; dNMeA = CN[C@H](C)C(=O)O; Dab = NCC[C@H](N)C(=O)O; Dap = NC[C@H](N)C(=O)O; ξPip = O=C(O)C1CCCCN1; Bn = c1ccc(C*)cc1; ξC = NC(CS)C(=O)O; Sar = CNCC(=O)O
Experiments:
Human PD-L1/PD-1 = molecular target: T1, Human PD-L1/PD-1 (Homo sapiens, UniProt Q9NZQ7); test: HTRF PD-1-Ig/PD-L1-His binding assay (human PD-L1)
T1 construct: made in house; host or cells: HEK293T
T1 sequence (Q9NZQ7 with tags, fused parts or gaps): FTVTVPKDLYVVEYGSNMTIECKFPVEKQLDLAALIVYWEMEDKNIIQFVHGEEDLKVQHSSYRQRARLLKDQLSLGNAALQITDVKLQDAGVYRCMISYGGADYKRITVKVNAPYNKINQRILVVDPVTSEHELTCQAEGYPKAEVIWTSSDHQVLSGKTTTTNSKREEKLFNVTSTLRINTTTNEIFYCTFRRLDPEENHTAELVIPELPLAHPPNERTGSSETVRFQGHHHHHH
In short: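 Soluble PD-1-Ig binding to PD-L1-His measured by HTRF in dPBS with 0.1% BSA and 0.05% Tween-20. Detection used europium cryptate anti-Ig antibody (1 nM final) and APC anti-His antibody (20 nM final) added on top of the binding reaction.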

[1] = molecular target: T2, LK35.2-hPD-L1 cells / PE-labeled PD-1-Ig (Homo sapiens, UniProt Q9NZQ7); test: LK35.2-hPD-L1 cell binding high-content screening assay; assay type: cell-based
T2 construct: expressed in transfected cells; host or cells: LK35.2 mouse B cell line
T2 sequence (Q9NZQ7 19-290): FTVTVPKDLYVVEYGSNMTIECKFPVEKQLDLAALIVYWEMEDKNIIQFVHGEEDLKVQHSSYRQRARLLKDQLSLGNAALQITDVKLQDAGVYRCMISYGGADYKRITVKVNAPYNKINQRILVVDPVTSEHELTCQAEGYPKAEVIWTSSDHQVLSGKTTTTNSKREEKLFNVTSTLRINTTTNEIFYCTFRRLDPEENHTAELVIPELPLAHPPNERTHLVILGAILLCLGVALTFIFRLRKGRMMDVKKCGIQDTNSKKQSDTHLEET
In short: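 Binding of PE-conjugated human PD-1-Ig (1 nM final) to human PD-L1 stably expressed on a mouse B-cell line (LK35.2) was measured by high-content imaging after washes. Compound and labeled PD-1-Ig were co-incubated 1 h at 37 °C with cells in RPMI/10% FCS.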

[2] = cluster symbol, read-out: HTRF IC50 cluster
[3] = cell binding assay, cell line not given, cluster symbol, read-out: CBA IC50 cluster
[4] = cluster symbol, cell line of CBA not given (LK35.2-hPD-L1 or 293T-hPD-L1), read-out: CBA IC50 cluster

Row | Structure (SMILES) | IC50 (Human PD-L1/PD-1; [2]) [nM] | IC50 [1, 3] [nM] | IC50 [1, 4] [nM] | IC50 (Human PD-L1/PD-1; numeric value, read-out: HTRF IC50 values) [nM] | IC50 ([1]; cell binding assay, cell line not given, numeric value, read-out: CBA IC50 values) [nM]
1 | CCCC[C@H]1C(=O)N2C[C@H](O)C[C@@H]2C(=O)N[C@@H](CC(N)=O)C(=O)N[C@@H](C(C)C)C(=O)N(C)[C@@H](Cc2ccccc2)C(=O)N[C@@H](Cc2ccc(O)cc2)C(=O)N(C)[C@H](CCC(=O)O)C(=O)N[C@@H](Cc2c[nH]c3ccccc23)C(=O)N[C@@H](Cc2ccc(O)cc2)C(=O)N[C@@H](CCCCN)C(=O)N[C@H](C(=O)NCC(N)=O)CSCC(=O)N[C@@H](Cc2cc(F)c(F)c(F)c2)C(=O)N(C)[C@@H](Cc2ccccc2)C(=O)N1C [Example 3596] ({CH2CO}-[Phe(3,4,5-F3)][NMeF][NMeNle][d(cisHyp)]NV[NMeF]Y[dNMeE]WYKCG-NH2; thioether N-13) | 6.76 to 30.3 | 0.158 to 4.71 |  |  | 
2 | CCCC[C@H]1C(=O)N(C)CC(=O)N[C@@H](CC(=O)O)C(=O)N[C@@H](C(C)C)C(=O)N(C)[C@@H](Cc2ccccc2)C(=O)N[C@@H](Cc2ccc(O)cc2)C(=O)N(C)CC(=O)N[C@@H](Cc2ccc(Cl)cc2)C(=O)N[C@@H](Cc2ccc(O)cc2)C(=O)N[C@@H](CC(C)C)C(=O)N[C@H](C(=O)NCC(N)=O)CSCC(=O)N[C@@H](Cc2ccccc2)C(=O)N(C)[C@@H](Cc2ccccc2)C(=O)N1C [Example 3546] ({CH2CO}-F[NMeF][NMeNle][Sar]DV[NMeF]Y[Sar][Phe(4-Cl)]YLCG-NH2; thioether N-13) | > 30.5 | > 74.3 |  |  | 
3 | CCCC[C@H]1C(=O)N[C@@H](CCCNC(=N)N)C(=O)N[C@H](C(=O)NCC(N)=O)CSCC(=O)N[C@@H](Cc2ccccc2)C(=O)N(C)[C@@H](C)C(=O)N[C@@H](CC(N)=O)C(=O)N2CCC[C@H]2C(=O)N[C@@H](Cc2cnc[nH]2)C(=O)N[C@@H](CC(C)C)C(=O)N(C)CC(=O)N[C@@H](Cc2c[nH]c3ccccc23)C(=O)N[C@@H](CO)C(=O)N[C@@H](Cc2c[nH]c3ccccc23)C(=O)N(C)[C@@H](COCc2ccccc2)C(=O)N1C [Example 6013] ({CH2CO}-F[NMeA]NPHL[Sar]WSW[NMeS](Bn)[NMeNle]RCG-NH2; thioether N-14) | 6.76 to 30.3 | 4.78 to 72.9 |  |  | 
4 | CCCC[C@H]1C(=O)N(C)[C@@H](CCCC)C(=O)N[C@@H](C)C(=O)N[C@H](C(=O)NCC(=O)O)CSCC(=O)N[C@@H](Cc2ccc(O)cc2)C(=O)N(C)[C@@H](C)C(=O)N[C@@H](CC(N)=O)C(=O)N2CCC[C@H]2C(=O)N[C@@H](Cc2cnc[nH]2)C(=O)N[C@@H](CC(C)C)C(=O)N[C@@H](CCCN)C(=O)N[C@@H](Cc2c[nH]c3ccccc23)C(=O)N[C@@H](CO)C(=O)N[C@@H](Cc2c[nH]c3ccccc23)C(=O)N1C [Example 1154] | 6.76 to 30.3 |  | > 74.3 |  | 
5 | CCCC[C@H]1C(=O)N(C)[C@@H](CCCC)C(=O)N[C@@H](CCCNC(=N)N)C(=O)NC(C(=O)NCC(N)=O)CSCC(=O)N[C@@H](Cc2ccc(O)cc2)C(=O)N(C)[C@@H](C)C(=O)N[C@@H](CC(N)=O)C(=O)N2CCC[C@H]2C(=O)N[C@@H](Cc2cnc[nH]2)C(=O)N[C@@H](CC(C)C)C(=O)N2C[C@H](O)C[C@H]2C(=O)N[C@@H](Cc2c[nH]c3ccccc23)C(=O)N[C@@H](CCO)C(=O)N[C@@H](Cc2csc3ccccc23)C(=O)N1C (stereo partly shown) [Example 9048] ({CH2CO}-Y[NMeA]NPHL[Hyp]W[hSer][Bta][NMeNle][NMeNle]R[ξC]G-NH2; thioether N-14) | 0.385 to 6.74 | 0.158 to 4.71 |  |  | 
6 | CCCC[C@H]1C(=O)N(C)[C@@H](CCCC)C(=O)N[C@@H](CC(C)C)C(=O)N[C@H](C(=O)NCC(N)=O)CSCC(=O)N[C@@H](Cc2ccc(O)cc2)C(=O)N(C)[C@@H](C)C(=O)N[C@@H](CC(N)=O)C(=O)N2CCC[C@H]2C(=O)N[C@@H](CN)C(=O)N[C@@H](CC(C)C)C(=O)N2CCC[C@H]2C(=O)N[C@@H](Cc2c[nH]c3ccccc23)C(=O)N[C@@H](CCN)C(=O)N[C@@H](Cc2c[nH]c3ccccc23)C(=O)N1C [Example 6040] ({CH2CO}-Y[NMeA]NP[Dap]LPW[Dab]W[NMeNle][NMeNle]LCG-NH2; thioether N-14) | 0.385 to 6.74 | 0.158 to 4.71 |  |  | 
7 | CCCC[C@@H]1C(=O)N(C)[C@H](CCCC)C(=O)N[C@@H](CCCN)C(=O)N[C@@H](C(=O)NCC(N)=O)CSCC(=O)N[C@@H](Cc2ccc(O)cc2)C(=O)N2CCCCC2C(=O)N[C@H](CC(=O)O)C(=O)N2CCC[C@H]2C(=O)N[C@H](Cc2c[nH]cn2)C(=O)N[C@@H](CCC(=O)O)C(=O)N2C[C@H](O)CC2C(=O)N[C@H](Cc2c[nH]c3ccccc23)C(=O)N[C@@H](CO)C(=O)N[C@@H](Cc2c[nH]c3ccccc23)C(=O)N1C (stereo partly drawn) [Example 1219] ({CH2CO}-Y[ξPip][dD]P[dH]E[ξPro(4R-OH)][dW]SW[dNMeNle][dNMeNle][Orn][dC]G-NH2; thioether N-14) | 6.76 to 30.3 |  | 0.158 to 4.71 |  | 
8 | CCCC[C@H]1C(=O)N(C)[C@@H](Cc2ccccc2)C(=O)N[C@@H](CCCNC(=N)N)C(=O)N[C@H](C(=O)NCC(N)=O)CSCC(=O)N[C@@H](Cc2ccccc2)C(=O)N(C)[C@@H](C)C(=O)N[C@@H](CC(N)=O)C(=O)N2CCC[C@H]2C(=O)N[C@@H](Cc2cnc[nH]2)C(=O)N[C@@H](CC(C)C)C(=O)N(C)CC(=O)N[C@@H](Cc2c[nH]c3ccccc23)C(=O)N[C@@H](CO)C(=O)N[C@@H](Cc2c[nH]c3ccccc23)C(=O)N1C [Example 1003] (HELM PEPTIDE1{[O=C(C[*:3])[*:2]].F.[meA].N.P.H.L.[Sar].W.S.W.[CCCC[C@@H](C(=O)[*:2])N(C)[*:1]].[meF].R.C.G.[am]}$PEPTIDE1,PEPTIDE1,1:R3-15:R3$$$V2.0) | > 30.5 |  | > 74.3 |  | 
9 | CCCC[C@H]1C(=O)N(C)CC(=O)N[C@@H](CC(=O)O)C(=O)N[C@@H](C(C)C)C(=O)N(C)[C@@H](Cc2ccccc2)C(=O)N[C@@H](Cc2ccc(O)cc2)C(=O)N(C)[C@H](C)C(=O)N[C@@H](Cc2c[nH]c3ccccc23)C(=O)N[C@@H](Cc2ccc(O)cc2)C(=O)N[C@@H](CC(C)C)C(=O)N[C@H](C(=O)NCC(N)=O)CSCC(=O)N[C@@H](Cc2ccccc2)C(=O)N(C)[C@@H](Cc2ccccc2)C(=O)N1C [Example 3551] ({CH2CO}-F[NMeF][NMeNle][Sar]DV[NMeF]Y[dNMeA]WYLCG-NH2; thioether N-13) | 6.76 to 30.3 | 4.78 to 72.9 |  |  | 
10 | CCCC[C@H]1C(=O)N(C)[C@@H](CCCC)C(=O)N[C@@H](CCN)C(=O)N[C@H](C(=O)NCC(N)=O)CSCC(=O)N[C@@H](Cc2ccc(O)cc2)C(=O)N(C)[C@@H](C)C(=O)N[C@@H](CC(=O)O)C(=O)N2CCC[C@H]2C(=O)N[C@@H](Cc2cnc[nH]2)C(=O)N[C@@H](CCC(=O)O)C(=O)N2C[C@H](O)C[C@H]2C(=O)N[C@@H](Cc2c[nH]c3ccccc23)C(=O)N[C@@H](CO)C(=O)N[C@@H](Cc2c[nH]c3ccccc23)C(=O)N1C [Example 5029] ({CH2CO}-Y[NMeA]DPHE[Hyp]WSW[NMeNle][NMeNle][Dab]CG-NH2; thioether N-14) | 0.385 to 6.74 | 0.158 to 4.71 |  |  | 
11 | CCCC[C@H]1C(=O)N(C)[C@@H](CCCC)C(=O)N[C@@H](CCCNC(=N)N)C(=O)NC(C(=O)NCC(N)=O)CSCC(=O)N[C@@H](Cc2ccc(O)cc2)C(=O)N(C)[C@@H](C)C(=O)N[C@@H](CC(N)=O)C(=O)N2C[C@H](O)C[C@H]2C(=O)N[C@@H](Cc2cnc[nH]2)C(=O)N[C@@H](CC(C)C)C(=O)N2CCC[C@H]2C(=O)N[C@@H](Cc2c[nH]c3ccccc23)C(=O)N[C@@H](CO)C(=O)N[C@@H](Cc2c[nH]c3ccccc23)C(=O)N1C (stereo partly shown) [Example 9011] ({CH2CO}-Y[NMeA]N[Hyp]HLPWSW[NMeNle][NMeNle]R[ξC]G-NH2; thioether N-14) |  |  |  | 9.4 | 13.5
12 | CCCC[C@H]1C(=O)N(C)[C@@H](CO)C(=O)N[C@@H](CCCNC(=N)N)C(=O)NC(C(=O)NCC(N)=O)CSCC(=O)N[C@@H](Cc2ccc(O)cc2)C(=O)N(C)[C@@H](C)C(=O)N[C@@H](CC(N)=O)C(=O)N2CCC[C@H]2C(=O)N[C@@H](Cc2cnc[nH]2)C(=O)N[C@@H](CC(C)C)C(=O)N2CCC[C@H]2C(=O)N[C@@H](Cc2c[nH]c3ccccc23)C(=O)N[C@@H](CO)C(=O)N[C@@H](Cc2csc3ccccc23)C(=O)N1C (stereo partly shown) [Example 9044] ({CH2CO}-Y[NMeA]NPHLPWS[Bta][NMeNle][NMeS]R[ξC]G-NH2; thioether N-14) | 0.385 to 6.74 | 0.158 to 4.71 |  |  | 
13 | CCCC[C@H]1C(=O)N(C)[C@@H](CCCC)C(=O)N[C@@H](CCC(=O)O)C(=O)N[C@H](C(=O)NCC(N)=O)CSCC(=O)N[C@@H](Cc2ccc(O)cc2)C(=O)N(C)[C@@H](C)C(=O)N[C@@H](CC(N)=O)C(=O)N2CCC[C@H]2C(=O)N[C@@H](Cc2c[nH]cn2)C(=O)N[C@@H](CCCCN)C(=O)N2C[C@H](O)C[C@H]2C(=O)N[C@@H](Cc2c[nH]c3ccccc23)C(=O)N[C@@H](CCCCN)C(=O)N[C@@H](Cc2c[nH]c3ccccc23)C(=O)N1C [Example 5100] ({CH2CO}-Y[NMeA]NPHK[Hyp]WKW[NMeNle][NMeNle]ECG-NH2; thioether N-14) | 6.76 to 30.3 | 0.158 to 4.71 |  |  | 
14 | CCCC[C@H]1C(=O)N(C)[C@@H](CCCC)C(=O)N[C@@H](CCCNC(=N)N)C(=O)N[C@H](C(=O)NCC(N)=O)CSCC(=O)N[C@@H](Cc2ccc(C(F)F)cc2)C(=O)N(C)[C@@H](C)C(=O)N[C@@H](CC(N)=O)C(=O)N2CCC[C@H]2C(=O)N[C@@H](Cc2cnc[nH]2)C(=O)N[C@@H](CC(C)C)C(=O)N2CCC[C@H]2C(=O)N[C@@H](Cc2c[nH]c3ccccc23)C(=O)N[C@@H](CO)C(=O)N[C@@H](Cc2csc3ccccc23)C(=O)N1C [Example 1044] ({CH2CO}-[Phe(4-CHF2)][NMeA]NPHLPWS[Bta][NMeNle][NMeNle]RCG-NH2; thioether N-14) | > 30.5 |  | > 74.3 |  | 
